# Test results taken from PubChem BioAssay AID1845208 (Molecular Pharmacology Branch, DTP, NCI, 2023).
# Values joined by “and” are separate entries in the source; they are usually repeats but may differ in a detail not shown here. Equal entries are not always repeated. Active and inactive are the calls of the source. Rule for the calls: active = viability on the fitted dose curve at most 10% of control; inactive = the rest.
# Test system: NCI-H196 SCLC complex tumor spheroid viability
# Experiment: Anticancer human tumor NCI-H196 cell line growth inhibition;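 for IC50: spheroids exposed to compounds for 7 days before readout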;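 for viability, T/C: spheroids exposed to compounds for 7 days before readout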
# Details: for viability, T/C: stronger effect = lower value
# Source text: Multicellular complex tumor spheroid response to DNA repair inhibitors in combination with DNA-damaging drugs
# This study explores the anticancer activities of DNA-damaging drugs and inhibitors of DNA damage repair, both as single agents and in combinations. Complex tumor spheroids comprised of malignant cells, endothelial cells and mesenchymal stem cells served as an in vitro model for human solid tumors. This model system incorporates physiologically relevant features and patient-derived or established malignant cell lines with clinically relevant genetic alterations from many tumor types. Twenty-six patient-derived or established malignant cell lines were evaluated representing sarcoma, melanoma, small cell lung cancer (SCLC), non-small cell lung cancer (NSCLC), as well as bladder, ovarian and pancreatic cancers. The concentration ranges selected for each drug and investigational agent were based upon clinically achievable concentrations if the clinical Cmax of the agent was known.
# Compounds. The drugs and compounds olaparib (NSC753686), talazoparib (NSC767125), berzosertib (NSC777718), elimusertib (NSC800525), nedisertib (NSC802822), VX-984 (NSC792969), AZD-1390 (NSC803789), temozolomide (NSC362856), topotecan (NSC609699), trabectedin (NSC813783), staurosporine (NSC755774), and gemcitabine (NSC613327) were obtained from the National Cancer Institute (NCI) Developmental Therapeutics Program Chemical Repository. The FDA-approved anticancer drug set is available from the Developmental Therapeutics Program at https://dtp.cancer.gov/organization/dscb/obtaining/available_plates.htm. […] The stock solutions were prepared in dimethyl sulfoxide (DMSO, Sigma-Aldrich, St. Louis, MO, cat. D2650) at 400-fold the tested concentration and stored at -70 degrees C. Prior to their use, the stock solutions were diluted in fresh medium and the final DMSO concentration in the assay was 0.25% (v/v). All drugs and investigational agents were tested over a range starting from a high concentration at or near the clinical Cmax and decreasing in half-log increments. If the clinical Cmax for an agent had not been determined, the highest concentration tested was 10 microM.
# Cell Lines. The patient-derived cancer cell (PDC) lines: 156681-154-R-J1-PDC, 283228-195-R-J1-PDC, 287954-098-R-J1-PDC, 292921-168-R-J2-PDC, 349418-098-R-PDC, 425362-245-T-J1-PDC, 556581-035-R-J1-PDC, and BL0293-F563-PDC were received from the NCI Patient-Derived Models Repository (PDMR, https://pdmr.cancer.gov). The established cell lines HS-SY-2 (RRID:CVCL_8719), MPNST, and SYO-1 (RRID:CVCL_7146) were obtained from the Sloan Kettering Institute. The alveolar soft parts sarcoma cell line ASPS-1 (RRID:CVCL_S738) was established at the NCI and grown from internal seed stocks. The following established cell lines were purchased from the American Type Culture Collection (ATCC, Manassas, VA): G-401 (ATCC, cat. CRL-1441, RRID:CVCL_0270), SW982 (ATCC, cat. HTB-93, RRID:CVCL_1734), VA-ES-BJ (ATCC, cat. CRL-2138, RRID:CVCL_1785), NCI-H719 (ATCC, cat. CRL-5837, RRID:CVCL_1582), NCI-H196 (ATCC, cat. CRL-5823, RRID:CVCL_1509), NCI-H841 (ATCC, cat. CRL-5845, RRID:CVCL_1595), NCI-H1618 (ATCC, cat. CRL-5879, RRID:CVCL_1480), NCI-H1876 (ATCC, cat. CRL-5902, RRID:CVCL_1503), DMS 114 (ATCC, cat. CRL-2066; RRID:CVCL_1174), NCI-H211 (ATCC, cat. CRL-5824; RRID:CVCL_1529), and SW 1271 (ATCC, cat. CRL-2177, RRID:CVCL_1716). The small cell lung cancer cell line COR-L88 was purchased from Sigma-Aldrich (cat. 92031917-1VL, RRID:CVCL_1141). The non-small cell lung cancer cell lines NCI-H226 (RRID:CVCL_1544) and NCI-H322M (RRID:CVCL_1557) were established at the NCI and grown from internal seed stocks. Pooled donor human umbilical vein endothelial cells (HUVEC, Lonza, cat. CC-2519) and human mesenchymal stem cells (hMSC, Lonza, cat. PT-2501) were purchased from Lonza (Walkersville, MD).
# Cell Culture. All cells were maintained in an incubator at 37 degrees C and 5% CO2 with 95% humidity. […]
compound,measurement,setting,value
CNCc1ccc(-c2cc(-c3nc(-c4ccc(S(=O)(=O)C(C)C)cc4)cnc3N)on2)cc1 + Cn1nnc2c(C(N)=O)ncn2c1=O,IC50,"curve of first compound, second compound 1 µM",> 3 µM
same,IC50,"curve of first compound, second compound 3.16 µM",> 3 µM
same,IC50,"curve of first compound, second compound 10 µM",> 3 µM
same,IC50,"curve of first compound, second compound 31.6 µM",> 3 µM
same,IC50,"curve of first compound, second compound 100 µM",> 3 µM
same,"viability, T/C","second compound 1 µM, first compound 0.00949 µM",100%
same,"viability, T/C","second compound 1 µM, first compound 0.03 µM",92.1%
same,"viability, T/C","second compound 1 µM, first compound 0.0949 µM",106%
same,"viability, T/C","second compound 1 µM, first compound 0.3 µM",99.5%
same,"viability, T/C","second compound 1 µM, first compound 0.949 µM",84.1%
same,"viability, T/C","second compound 1 µM, first compound 3 µM",85.2%
same,"viability, T/C","second compound 3.16 µM, first compound 0.00949 µM",98.7%
same,"viability, T/C","second compound 3.16 µM, first compound 0.03 µM",97.4%
same,"viability, T/C","second compound 3.16 µM, first compound 0.0949 µM",104%
same,"viability, T/C","second compound 3.16 µM, first compound 0.3 µM",105%
same,"viability, T/C","second compound 3.16 µM, first compound 0.949 µM",88.1%
same,"viability, T/C","second compound 3.16 µM, first compound 3 µM",88.2%
same,"viability, T/C","second compound 10 µM, first compound 0.00949 µM",100%
same,"viability, T/C","second compound 10 µM, first compound 0.03 µM",96.3%
same,"viability, T/C","second compound 10 µM, first compound 0.0949 µM",105%
same,"viability, T/C","second compound 10 µM, first compound 0.3 µM",99.5%
same,"viability, T/C","second compound 10 µM, first compound 0.949 µM",95.3%
same,"viability, T/C","second compound 10 µM, first compound 3 µM",84.4%
same,"viability, T/C","second compound 31.6 µM, first compound 0.00949 µM",102%
same,"viability, T/C","second compound 31.6 µM, first compound 0.03 µM",113%
same,"viability, T/C","second compound 31.6 µM, first compound 0.0949 µM",106%
same,"viability, T/C","second compound 31.6 µM, first compound 0.3 µM",105%
same,"viability, T/C","second compound 31.6 µM, first compound 0.949 µM",91.4%
same,"viability, T/C","second compound 31.6 µM, first compound 3 µM",82.9%
same,"viability, T/C","second compound 100 µM, first compound 0.00949 µM",107%
same,"viability, T/C","second compound 100 µM, first compound 0.03 µM",109%
same,"viability, T/C","second compound 100 µM, first compound 0.0949 µM",112%
same,"viability, T/C","second compound 100 µM, first compound 0.3 µM",99.6%
same,"viability, T/C","second compound 100 µM, first compound 0.949 µM",88.3%
same,"viability, T/C","second compound 100 µM, first compound 3 µM",84.3%
COc1ccc([C@@H](O)c2cc(-c3ncnc4cc(N5CCOCC5)ccc34)c(F)cc2Cl)nn1,"viability, T/C",compound 0.0316 µM,96.5% and 98.3% and 102%
same,"viability, T/C",compound 0.1 µM,101% and 94.9% and 98.9%
same,"viability, T/C",compound 0.316 µM,89.8% and 87.1% and 95.5%
same,outcome,compound 1 µM,inactive
same,"viability, T/C",compound 1 µM,78.1% and 80.4%
same,"viability, T/C",compound 3.16 µM,65% and 69% and 75.8%
same,"viability, T/C",compound 10 µM,49.7% and 56.2% and 59.8%
same,IC50,curve of compound,> 10 µM
CNCc1ccc(-c2cc(-c3nc(-c4ccc(S(=O)(=O)C(C)C)cc4)cnc3N)on2)cc1 + CC[C@@]1(O)C(=O)OCc2c1cc1n(c2=O)Cc2cc3c(CN(C)C)c(O)ccc3nc2-1,IC50,"curve of first compound, second compound 0.003 µM",> 3 µM
same,IC50,"curve of first compound, second compound 0.00949 µM",> 3 µM
same,IC50,"curve of first compound, second compound 0.03 µM",> 3 µM
same,IC50,"curve of first compound, second compound 0.0949 µM",> 3 µM
same,IC50,"curve of first compound, second compound 0.3 µM",> 3 µM
same,"viability, T/C","second compound 0.003 µM, first compound 0.00949 µM",101%
same,"viability, T/C","second compound 0.003 µM, first compound 0.03 µM",102%
same,"viability, T/C","second compound 0.003 µM, first compound 0.0949 µM",101%
same,"viability, T/C","second compound 0.003 µM, first compound 0.3 µM",94.3%
same,"viability, T/C","second compound 0.003 µM, first compound 0.949 µM",86.2%
same,"viability, T/C","second compound 0.003 µM, first compound 3 µM",76.1%
same,"viability, T/C","second compound 0.00949 µM, first compound 0.00949 µM",98.5%
same,"viability, T/C","second compound 0.00949 µM, first compound 0.03 µM",99%
same,"viability, T/C","second compound 0.00949 µM, first compound 0.0949 µM",112%
same,"viability, T/C","second compound 0.00949 µM, first compound 0.3 µM",95.7%
same,"viability, T/C","second compound 0.00949 µM, first compound 0.949 µM",84.1%
same,"viability, T/C","second compound 0.00949 µM, first compound 3 µM",78.7%
same,"viability, T/C","second compound 0.03 µM, first compound 0.00949 µM",101%
same,"viability, T/C","second compound 0.03 µM, first compound 0.03 µM",101%
same,"viability, T/C","second compound 0.03 µM, first compound 0.0949 µM",101%
same,"viability, T/C","second compound 0.03 µM, first compound 0.3 µM",93.2%
same,"viability, T/C","second compound 0.03 µM, first compound 0.949 µM",76.9%
same,"viability, T/C","second compound 0.03 µM, first compound 3 µM",81.6%
same,"viability, T/C","second compound 0.0949 µM, first compound 0.00949 µM",99.9%
same,"viability, T/C","second compound 0.0949 µM, first compound 0.03 µM",104%
same,"viability, T/C","second compound 0.0949 µM, first compound 0.0949 µM",121%
same,"viability, T/C","second compound 0.0949 µM, first compound 0.3 µM",88.7%
same,"viability, T/C","second compound 0.0949 µM, first compound 0.949 µM",89.3%
same,"viability, T/C","second compound 0.0949 µM, first compound 3 µM",75.1%
same,"viability, T/C","second compound 0.3 µM, first compound 0.00949 µM",94.9%
same,"viability, T/C","second compound 0.3 µM, first compound 0.03 µM",93.7%
same,"viability, T/C","second compound 0.3 µM, first compound 0.0949 µM",92.7%
same,"viability, T/C","second compound 0.3 µM, first compound 0.3 µM",75%
same,"viability, T/C","second compound 0.3 µM, first compound 0.949 µM",65%
same,"viability, T/C","second compound 0.3 µM, first compound 3 µM",57.1%
